Columns and labels:
[1] = biological target: Mitogen-activated protein kinase kinase kinase kinase 4 (Homo sapiens) (UniProt O95819); conditions: at 1 µM
[2] = biological target: Epidermal growth factor receptor (Homo sapiens, UniProt P00533); conditions: at 1 µM
[3] = biological target: Activin receptor type-2A (Homo sapiens) (UniProt P27037); conditions: at 1 µM
[4] = biological target: Mitogen-activated protein kinase kinase kinase kinase 5 (Homo sapiens) (UniProt Q9Y4K4); conditions: at 1 µM
[5] = biological target: Sodium channel regulatory subunit beta-2 (Homo sapiens, UniProt O60939); assay: Selectivity interaction (Enzyme and Receptor panel (MSD Pharma/Taiwan)) EUB0000753a SCN2B
Sequence of Sodium channel regulatory subunit beta-2 (O60939 whole entry): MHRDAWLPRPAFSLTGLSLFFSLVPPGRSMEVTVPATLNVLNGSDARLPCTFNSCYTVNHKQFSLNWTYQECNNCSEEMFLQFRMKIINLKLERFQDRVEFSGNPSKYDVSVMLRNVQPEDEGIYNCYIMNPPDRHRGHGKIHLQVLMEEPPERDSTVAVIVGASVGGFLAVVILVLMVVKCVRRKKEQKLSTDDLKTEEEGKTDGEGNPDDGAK

[6] = biological target: Serine/threonine-protein kinase Sgk2 (Homo sapiens) (UniProt Q9HBY8); assay: Selectivity interaction (Kinase panel (Millipore)) EUB0000153b SGK2; conditions: at 10 µM
[7] = biological target: Phosphatidylinositol 4,5-bisphosphate 3-kinase catalytic subunit gamma isoform (Homo sapiens, UniProt P48736); assay: Selectivity interaction (Kinase panel (enzymatic assay)) EUB0000153b PIK3CG
[8] = biological target: Ribosomal protein S6 kinase alpha-2 (Homo sapiens) (UniProt Q15349); assay: Selectivity interaction (Kinase panel (Millipore)) EUB0000153b RPS6KA2; conditions: at 10 µM
[9] = biological target: Mitogen-activated protein kinase kinase kinase 5 (Homo sapiens, UniProt Q99683); assay: Selectivity interaction (Kinase panel (enzymatic assay)) EUB0000153b MAP3K5
Sequence of Mitogen-activated protein kinase kinase kinase 5 (Q99683 whole entry): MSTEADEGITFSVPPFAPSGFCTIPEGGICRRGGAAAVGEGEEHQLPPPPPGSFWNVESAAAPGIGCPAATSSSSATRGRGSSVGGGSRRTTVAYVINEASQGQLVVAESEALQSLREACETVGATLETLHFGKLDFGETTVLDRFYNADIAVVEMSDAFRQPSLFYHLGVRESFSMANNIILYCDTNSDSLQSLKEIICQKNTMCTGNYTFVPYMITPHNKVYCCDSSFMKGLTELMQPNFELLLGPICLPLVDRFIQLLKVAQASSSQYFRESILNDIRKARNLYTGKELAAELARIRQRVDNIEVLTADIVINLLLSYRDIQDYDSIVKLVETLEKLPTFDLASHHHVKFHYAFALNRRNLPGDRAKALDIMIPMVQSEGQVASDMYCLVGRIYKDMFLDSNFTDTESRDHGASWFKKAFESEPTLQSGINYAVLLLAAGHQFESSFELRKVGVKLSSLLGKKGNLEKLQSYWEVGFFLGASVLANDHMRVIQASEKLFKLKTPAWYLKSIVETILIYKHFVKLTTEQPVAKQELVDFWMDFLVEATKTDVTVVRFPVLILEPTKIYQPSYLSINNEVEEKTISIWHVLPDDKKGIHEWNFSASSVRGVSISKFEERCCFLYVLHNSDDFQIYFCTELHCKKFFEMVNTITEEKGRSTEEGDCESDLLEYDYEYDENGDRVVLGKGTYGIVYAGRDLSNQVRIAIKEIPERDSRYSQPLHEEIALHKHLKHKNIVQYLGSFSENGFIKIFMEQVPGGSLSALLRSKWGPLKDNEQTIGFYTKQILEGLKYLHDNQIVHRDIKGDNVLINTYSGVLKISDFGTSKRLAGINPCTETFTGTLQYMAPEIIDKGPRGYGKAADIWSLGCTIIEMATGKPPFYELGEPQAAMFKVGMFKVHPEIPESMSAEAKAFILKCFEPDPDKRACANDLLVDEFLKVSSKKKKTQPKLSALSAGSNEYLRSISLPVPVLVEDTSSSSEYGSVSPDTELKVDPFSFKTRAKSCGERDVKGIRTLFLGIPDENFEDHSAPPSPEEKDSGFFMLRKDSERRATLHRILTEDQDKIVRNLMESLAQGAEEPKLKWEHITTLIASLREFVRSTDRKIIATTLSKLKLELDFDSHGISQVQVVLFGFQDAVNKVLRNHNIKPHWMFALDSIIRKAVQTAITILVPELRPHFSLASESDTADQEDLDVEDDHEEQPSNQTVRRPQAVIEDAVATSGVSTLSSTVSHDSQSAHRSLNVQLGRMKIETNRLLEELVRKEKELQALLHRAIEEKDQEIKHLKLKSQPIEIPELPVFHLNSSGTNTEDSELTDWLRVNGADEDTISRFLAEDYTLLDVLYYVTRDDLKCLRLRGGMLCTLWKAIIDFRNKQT

[10] = biological target: Ribosomal protein S6 kinase alpha-6 (Homo sapiens) (UniProt Q9UK32); assay: Selectivity interaction (Kinase panel (Millipore)) EUB0000153b RPS6KA6; conditions: at 10 µM
[11] = biological target: Vascular endothelial growth factor receptor 2 (Homo sapiens, UniProt P35968); assay: Selectivity interaction (Kinase panel (enzymatic assay)) EUB0000153b KDR
[12] = biological target: NUAK family SNF1-like kinase 1 (Homo sapiens) (UniProt O60285); assay: Selectivity interaction (Kinase panel (Millipore)) EUB0000153b NUAK1; conditions: at 10 µM
Sequence of NUAK family SNF1-like kinase 1 (Homo sapiens) (O60285 whole entry): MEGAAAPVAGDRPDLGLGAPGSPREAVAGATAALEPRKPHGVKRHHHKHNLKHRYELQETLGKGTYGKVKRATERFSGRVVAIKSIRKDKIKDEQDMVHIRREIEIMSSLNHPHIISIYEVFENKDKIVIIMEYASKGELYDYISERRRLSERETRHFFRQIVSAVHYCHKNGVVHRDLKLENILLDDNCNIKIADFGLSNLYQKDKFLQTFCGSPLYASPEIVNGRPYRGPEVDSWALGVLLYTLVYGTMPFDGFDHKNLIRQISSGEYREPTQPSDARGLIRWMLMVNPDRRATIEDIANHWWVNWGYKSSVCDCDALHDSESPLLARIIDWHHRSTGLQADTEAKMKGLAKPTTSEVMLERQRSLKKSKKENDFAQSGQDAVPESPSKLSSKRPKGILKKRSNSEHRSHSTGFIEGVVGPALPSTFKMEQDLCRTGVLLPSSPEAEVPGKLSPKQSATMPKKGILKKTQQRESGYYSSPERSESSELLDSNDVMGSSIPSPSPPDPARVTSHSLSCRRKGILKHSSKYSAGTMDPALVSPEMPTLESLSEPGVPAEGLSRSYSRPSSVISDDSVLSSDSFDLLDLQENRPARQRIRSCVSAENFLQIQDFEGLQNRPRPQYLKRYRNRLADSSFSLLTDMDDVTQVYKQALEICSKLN

[13] = biological target: RAC-alpha serine/threonine-protein kinase (Homo sapiens, UniProt P31749); assay: Selectivity interaction (Kinase panel (enzymatic assay)) EUB0000153b AKT1
Sequence of RAC-alpha serine/threonine-protein kinase (P31749 whole entry): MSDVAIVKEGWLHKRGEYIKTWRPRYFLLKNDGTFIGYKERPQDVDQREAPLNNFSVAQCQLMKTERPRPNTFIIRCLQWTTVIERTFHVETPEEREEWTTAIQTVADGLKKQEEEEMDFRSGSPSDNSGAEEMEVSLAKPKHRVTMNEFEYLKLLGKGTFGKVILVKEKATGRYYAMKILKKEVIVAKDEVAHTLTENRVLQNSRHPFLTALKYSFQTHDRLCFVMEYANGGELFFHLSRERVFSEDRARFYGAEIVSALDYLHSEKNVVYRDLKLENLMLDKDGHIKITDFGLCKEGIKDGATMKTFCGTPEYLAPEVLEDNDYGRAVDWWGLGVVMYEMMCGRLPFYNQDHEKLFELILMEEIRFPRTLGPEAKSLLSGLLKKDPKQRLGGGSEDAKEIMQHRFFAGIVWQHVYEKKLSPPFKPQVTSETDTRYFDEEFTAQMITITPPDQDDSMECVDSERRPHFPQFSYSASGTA

[14] = biological target: Tyrosine-protein kinase SYK (Homo sapiens, UniProt P43405); assay: Selectivity interaction (Kinase panel (enzymatic assay)) EUB0000153b SYK
[15] = biological target: Inhibitor of nuclear factor kappa-B kinase subunit alpha (Homo sapiens, UniProt O15111); assay: Selectivity interaction (Kinase panel (enzymatic assay)) EUB0000153b CHUK
Sequence of Inhibitor of nuclear factor kappa-B kinase subunit alpha (O15111 whole entry): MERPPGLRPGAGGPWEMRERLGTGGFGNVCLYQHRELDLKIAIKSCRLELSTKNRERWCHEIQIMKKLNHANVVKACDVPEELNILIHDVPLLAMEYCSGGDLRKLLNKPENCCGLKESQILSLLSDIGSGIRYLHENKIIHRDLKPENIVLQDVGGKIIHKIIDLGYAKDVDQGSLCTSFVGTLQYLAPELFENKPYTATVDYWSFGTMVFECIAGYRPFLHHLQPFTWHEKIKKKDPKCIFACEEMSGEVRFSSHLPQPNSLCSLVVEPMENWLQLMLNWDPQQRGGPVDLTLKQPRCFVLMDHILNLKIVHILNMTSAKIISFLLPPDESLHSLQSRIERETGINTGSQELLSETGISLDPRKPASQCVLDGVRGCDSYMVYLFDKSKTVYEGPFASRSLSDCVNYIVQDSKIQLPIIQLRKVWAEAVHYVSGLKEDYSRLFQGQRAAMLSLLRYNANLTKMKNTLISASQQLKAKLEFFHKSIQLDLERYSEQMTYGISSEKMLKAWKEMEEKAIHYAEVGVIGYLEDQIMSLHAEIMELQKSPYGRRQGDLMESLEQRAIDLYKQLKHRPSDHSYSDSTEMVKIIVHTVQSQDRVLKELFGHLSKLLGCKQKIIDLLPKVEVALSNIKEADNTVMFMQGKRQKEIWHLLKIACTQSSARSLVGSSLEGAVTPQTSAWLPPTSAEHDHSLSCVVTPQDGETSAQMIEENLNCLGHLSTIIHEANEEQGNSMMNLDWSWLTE

[16] = biological target: Rho-associated protein kinase 2 (Homo sapiens) (UniProt O75116); assay: Selectivity interaction (Kinase panel (Millipore)) EUB0000153b ROCK2; conditions: at 10 µM
[17] = biological target: T1, Serine/threonine-protein kinase Sgk1 (Homo sapiens) (UniProt O00141); assay: Selectivity interaction (Kinase panel (Millipore)) EUB0000153b SGK1; conditions: at 10 µM
T1 sequence (whole entry): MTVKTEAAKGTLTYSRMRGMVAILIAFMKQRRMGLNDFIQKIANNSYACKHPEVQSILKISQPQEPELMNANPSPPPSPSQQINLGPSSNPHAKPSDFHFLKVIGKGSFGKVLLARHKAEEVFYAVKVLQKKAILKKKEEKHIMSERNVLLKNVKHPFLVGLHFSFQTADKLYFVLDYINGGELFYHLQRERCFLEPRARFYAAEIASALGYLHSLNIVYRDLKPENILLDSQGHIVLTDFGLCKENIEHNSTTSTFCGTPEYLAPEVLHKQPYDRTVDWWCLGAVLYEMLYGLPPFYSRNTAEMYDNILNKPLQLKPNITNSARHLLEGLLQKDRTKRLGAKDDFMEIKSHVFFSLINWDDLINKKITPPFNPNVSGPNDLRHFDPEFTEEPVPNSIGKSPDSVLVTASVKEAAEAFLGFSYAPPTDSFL

[18] = biological target: Glycogen synthase kinase-3 beta (Homo sapiens, UniProt P49841); assay: Selectivity interaction (Kinase panel (enzymatic assay)) EUB0000153b GSK3B
Sequence of Glycogen synthase kinase-3 beta (P49841 whole entry): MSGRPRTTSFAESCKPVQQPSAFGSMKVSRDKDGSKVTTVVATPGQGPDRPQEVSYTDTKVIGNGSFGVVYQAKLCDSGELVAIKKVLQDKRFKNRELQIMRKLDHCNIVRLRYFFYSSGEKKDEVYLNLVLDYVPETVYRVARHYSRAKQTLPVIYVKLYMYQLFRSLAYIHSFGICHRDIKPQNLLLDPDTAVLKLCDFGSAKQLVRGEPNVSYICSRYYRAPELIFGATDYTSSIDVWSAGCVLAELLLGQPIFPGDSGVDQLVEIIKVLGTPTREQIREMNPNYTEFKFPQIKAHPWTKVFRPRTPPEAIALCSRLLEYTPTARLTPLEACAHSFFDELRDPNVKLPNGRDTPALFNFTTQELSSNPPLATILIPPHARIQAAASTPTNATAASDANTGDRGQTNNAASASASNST

TGF-beta receptor type-1 = TGF-beta receptor type-1 (Homo sapiens, UniProt P36897); assay: Selectivity interaction (Kinase panel (enzymatic assay)) EUB0000153b TGFBR1
[19] = biological target: cAMP-dependent protein kinase catalytic subunit PRKX (Homo sapiens) (UniProt P51817); assay: Selectivity interaction (Kinase panel (Millipore)) EUB0000153b PRKX; conditions: at 10 µM
Sequence of cAMP-dependent protein kinase catalytic subunit PRKX (Homo sapiens) (P51817 whole entry): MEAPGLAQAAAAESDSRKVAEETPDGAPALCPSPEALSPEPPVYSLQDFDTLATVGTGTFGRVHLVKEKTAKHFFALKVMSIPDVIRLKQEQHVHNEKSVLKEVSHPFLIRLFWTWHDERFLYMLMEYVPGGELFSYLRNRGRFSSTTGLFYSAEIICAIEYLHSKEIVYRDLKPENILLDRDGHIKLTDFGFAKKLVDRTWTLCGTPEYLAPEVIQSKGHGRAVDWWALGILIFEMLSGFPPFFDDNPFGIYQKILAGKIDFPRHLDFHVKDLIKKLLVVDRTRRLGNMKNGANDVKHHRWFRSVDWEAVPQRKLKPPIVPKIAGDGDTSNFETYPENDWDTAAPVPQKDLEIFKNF

[20] = biological target: T2, Alpha-1B adrenergic receptor (Homo sapiens, UniProt P35368); assay: Selectivity interaction (Receptors and enzyme panel (internal screening at GSK)) EUB0000215b ADRA1B
T2 sequence (P35368 whole entry): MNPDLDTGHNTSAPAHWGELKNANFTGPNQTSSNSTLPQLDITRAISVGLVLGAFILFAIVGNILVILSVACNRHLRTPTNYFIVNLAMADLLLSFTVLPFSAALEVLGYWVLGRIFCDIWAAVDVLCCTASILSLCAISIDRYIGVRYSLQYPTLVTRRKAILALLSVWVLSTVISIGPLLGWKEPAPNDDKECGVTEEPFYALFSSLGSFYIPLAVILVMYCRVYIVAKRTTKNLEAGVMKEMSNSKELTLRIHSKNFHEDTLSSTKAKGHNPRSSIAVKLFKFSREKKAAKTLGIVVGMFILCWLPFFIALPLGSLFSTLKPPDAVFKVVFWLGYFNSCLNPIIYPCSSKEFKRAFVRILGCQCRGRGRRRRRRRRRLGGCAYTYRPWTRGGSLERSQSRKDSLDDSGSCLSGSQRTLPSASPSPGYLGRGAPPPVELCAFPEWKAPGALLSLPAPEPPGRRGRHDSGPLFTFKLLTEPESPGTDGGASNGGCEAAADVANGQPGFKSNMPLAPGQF

[21] = biological target: T3, Histone-lysine N-methyltransferase EZH1 (Homo sapiens, UniProt Q92800); assay: Selectivity interaction (Methyltransferase panel (HotSpot screen, Reaction Biology, radioisotope-based filter binding assays)) EUB0000215b EZH1
T3 sequence (Q92800 whole entry): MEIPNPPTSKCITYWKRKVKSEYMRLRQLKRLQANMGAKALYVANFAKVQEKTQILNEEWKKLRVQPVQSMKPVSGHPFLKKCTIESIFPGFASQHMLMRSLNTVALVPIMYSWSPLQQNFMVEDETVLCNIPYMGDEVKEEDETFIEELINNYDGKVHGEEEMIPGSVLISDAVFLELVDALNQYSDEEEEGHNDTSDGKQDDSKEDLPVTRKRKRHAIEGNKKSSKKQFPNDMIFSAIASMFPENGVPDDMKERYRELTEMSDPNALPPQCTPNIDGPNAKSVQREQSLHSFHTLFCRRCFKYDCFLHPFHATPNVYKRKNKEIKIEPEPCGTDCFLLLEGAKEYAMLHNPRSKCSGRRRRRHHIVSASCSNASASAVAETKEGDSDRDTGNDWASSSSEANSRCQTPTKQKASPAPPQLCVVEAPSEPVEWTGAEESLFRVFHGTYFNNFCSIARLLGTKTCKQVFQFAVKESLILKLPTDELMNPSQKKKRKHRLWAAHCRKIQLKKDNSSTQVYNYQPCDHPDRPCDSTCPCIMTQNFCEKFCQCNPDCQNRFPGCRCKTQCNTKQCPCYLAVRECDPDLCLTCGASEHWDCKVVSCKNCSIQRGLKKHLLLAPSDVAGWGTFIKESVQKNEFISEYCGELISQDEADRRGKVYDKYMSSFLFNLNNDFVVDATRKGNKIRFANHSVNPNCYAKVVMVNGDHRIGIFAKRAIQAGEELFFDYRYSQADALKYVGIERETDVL

[22] = biological target: Tyrosine-protein kinase JAK2 (Homo sapiens, UniProt O60674); conditions: at 1 µM
[23] = biological target: Tyrosine-protein kinase ABL1 (Homo sapiens, UniProt P00519); conditions: at 1 µM
[24] = biological target: T2, Alpha-1B adrenergic receptor; assay: Selectivity interaction (GPCR panel (PDSP screen)) EUB0000739a ADRA1B
[25] = biological target: T4, Gamma-aminobutyric acid receptor subunit alpha-1 (Homo sapiens, UniProt P14867); assay: Selectivity interaction (GPCR panel (PDSP screen)) EUB0000739a GABRA1
T4 sequence (P14867 whole entry): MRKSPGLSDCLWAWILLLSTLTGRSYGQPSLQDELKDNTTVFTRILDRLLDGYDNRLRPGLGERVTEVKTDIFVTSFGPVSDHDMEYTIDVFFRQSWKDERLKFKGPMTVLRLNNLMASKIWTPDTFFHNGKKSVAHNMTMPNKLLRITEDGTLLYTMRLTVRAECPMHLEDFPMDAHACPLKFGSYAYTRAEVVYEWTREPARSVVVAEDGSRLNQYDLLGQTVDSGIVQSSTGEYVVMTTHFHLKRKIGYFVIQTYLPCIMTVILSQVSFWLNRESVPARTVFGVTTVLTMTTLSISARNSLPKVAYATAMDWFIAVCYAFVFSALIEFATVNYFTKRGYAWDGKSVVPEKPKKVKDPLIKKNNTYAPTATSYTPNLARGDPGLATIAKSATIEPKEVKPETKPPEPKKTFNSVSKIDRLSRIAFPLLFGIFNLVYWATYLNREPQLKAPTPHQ

[26] = biological target: High affinity nerve growth factor receptor (Homo sapiens, UniProt P04629); assay: Selectivity interaction (KinomeScan (DiscoverX, competition-binding assay))

Sequence of Activin receptor type-2A (Homo sapiens) (P27037 whole entry): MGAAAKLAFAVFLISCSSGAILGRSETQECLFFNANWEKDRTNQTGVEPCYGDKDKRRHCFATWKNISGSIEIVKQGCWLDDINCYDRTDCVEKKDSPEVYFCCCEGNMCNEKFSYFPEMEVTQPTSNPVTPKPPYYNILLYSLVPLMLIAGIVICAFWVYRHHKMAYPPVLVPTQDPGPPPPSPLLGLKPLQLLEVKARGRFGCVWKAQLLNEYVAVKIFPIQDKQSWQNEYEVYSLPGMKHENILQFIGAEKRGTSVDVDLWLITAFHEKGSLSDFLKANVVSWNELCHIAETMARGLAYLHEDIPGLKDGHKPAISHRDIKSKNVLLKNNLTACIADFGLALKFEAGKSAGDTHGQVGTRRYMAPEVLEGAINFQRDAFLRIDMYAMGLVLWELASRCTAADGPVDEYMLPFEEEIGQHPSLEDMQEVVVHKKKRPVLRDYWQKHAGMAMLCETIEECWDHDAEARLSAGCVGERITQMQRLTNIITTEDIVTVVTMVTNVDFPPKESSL

Which results are given for COc1cc(-c2cn([C@H]3CCc4c(F)cccc4N(CC(F)(F)F)C3=O)nn2)ccc1-n1cnc(C)c1?
% of control [1]: 0%; % of control [2]: 0%; % of control [3]: 0%; % of control [4]: 5.8%; IC50 [5]: 1000 nM

For CNc1nc(-c2ccc3c(N)n[nH]c3c2)cc(N2C[C@@H](C(=O)NC3CCCCC3)CC[C@H]2C)n1, which % of control [6] is on record?
The % of control was 0%.

What about the IC50 [7] of the same compound?
Its IC50 is greater than 10 µM.

And the % of control [8]?
Its % of control is 14%.

And the IC50 [9]?
The IC50 was greater than 10 µM.

And the % of control [10]?
The % of control was 12%.

What about the IC50 [11] of the same compound?
Its IC50 is greater than 10 µM.

What about the % of control [12] of the same compound?
Its % of control is 16%.

What about the IC50 [13] of the same compound?
Its IC50 is greater than 10 µM.

And the IC50 [14]?
The IC50 was greater than 10 µM.

What about the IC50 [15] of the same compound?
Its IC50 is greater than 10 µM.

What about the % of control [16] of the same compound?
The % of control was 17%.

What about the % of control [17] of the same compound?
The % of control was 13%.

What about the IC50 [18] of the same compound?
Its IC50 is greater than 10 µM.

And the IC50 (TGF-beta receptor type-1)?
Its IC50 is greater than 10 µM.

What about the % of control [19] of the same compound?
The % of control was 4%.

Which results are given for CCCc1cc(C)[nH]c(=O)c1CNC(=O)c1cc(-c2ccnc(N3CCN(C)CC3)c2)cc2c1cnn2C(C)C?
IC50 [20]: 10 µM; IC50 [21]: 240 nM

With COc1cc(-c2cn([C@H]3CCc4ccccc4N(CC(F)(F)F)C3=O)nn2)ccc1-n1ccc(C)n1 as the compound, how does the % of control [22] read?
Its % of control is 34%.

And the % of control [23]?
Its % of control is 47%.

And the Ki [24]?
The Ki was greater than 10 µM.

What about the Ki [25] of the same compound?
The Ki was 5.07 µM.

How did the Kd [26] turn out when COc1ccc(COc2ccc(Cc3cnc(N)nc3N)cc2OC)cc1 [GW632580X] was run?
Its Kd is less than 100 nM.
